Assay results reported in US20250339812A1, “ELECTROCHEMICAL DIRECT AIR CAPTURE OF CARBON DIOXIDE USING REVERSIBLE REDOX-ACTIVE MATERIAL” (Massachusetts Institute of Technology, priority 2022, published 2025).
Like-named read-outs stand apart in the source and are kept apart here.

Key:
[1] = pKa of the NR/NRH equilibrium; type: physicochemical
Description: After basification, a carbon dioxide rich gas stream was introduced to saturate and consequently acidify the solution.

[2] = Cyclic voltammetry redox durability of NR (100 cycles); settings: after 100 cyclic voltammetry cycles
Description: The electrochemistry of the NR aqueous solution was examined by CV at various pH levels between 6 and 12 (FIG. 2A).

[3] = for peak intensity degradation: nitrogen control
Description: FIG. 5C is a UV-vis spectra for the oxygen sensitivity test.
FIG. 5D is a UV-vis spectra for the control experiment under nitrogen.
FIG. 5E is a UV-vis spectra for the stability test under carbon dioxide.
FIG. 5F is a UV-vis spectra for the stability test under air.
The factors contributing to the 455 nm peak degradation were examined, including decomposition, reoxidation, precipitation, and polymerization.
A third set of UV-vis absorption measurements […], this time on solutions contacted with carbon dioxide, was carried out. […] The final set of UV-vis absorption experiments in FIG. 5F was carried out using solutions bubbled with ambient air.

pKa [1] | decay in the peak current [2] | sensitivity to oxygen ([3]; UV-vis absorption spectroscopy, 50 mM NRH2 in 1 M NA and 0.5 M KCl in water) | intensities of the 455 nm peak ([3]; bubbled with ambient air, 30 min and 2 h contact) | degradation of peak intensity at 455 nm ([3]; contacted with carbon dioxide, after a day) | peak intensity at 455 nm ([3]; contacting pure oxygen, 2 h) | peak intensity degradation ([3]; after 24 h) [%] | peak intensity degradation ([3]; after a week) [%] | peak intensity of NRH2 (455 nm) lowered by ([3]; oxygen atmosphere, a day) [%] | peak intensity of NRH2 (455 nm) lowered by ([3]; sealed under oxygen atmosphere after 24 h bubbling, a week) [%] | Compound | decomposition, reoxidation or polymerization products by NMR studies ([3]; NRH2 solutions)
6.8 | no significant decay |  |  |  |  |  |  |  |  | Cc1cc2nc3ccc(N(C)C)cc3nc2cc1N.Cl [NR, neutral red] | 
 |  | insensitive to oxygen | the same | no significant degradation | maintained | 33 | 53 | 42 | 52 | Cc1cc2c(cc1N)Nc1cc(N(C)C)ccc1N2 [NRH2, leuco-neutral red] | No major decomposition, reoxidation, or polymerization products
